# Assay results reported in US10676474B2, “1,6-naphthyridine derivatives as CDK4/6 inhibitor” (CSTONE PHARMACEUTICALS, priority 2016, dated 2020).
# Like-named read-outs stand apart in the source and are kept apart here.
# What was measured:
# physchem = conditions: phosphate buffer, pH 7.4, aqueous buffer, kinetic from dmso stock
# [1] = Thermodynamic solubility test (shake-flask, HPLC); assay type: physicochemical; conditions: phosphate buffer, aqueous buffer, thermodynamic from solid; QC samples, pH 7.4; read-out: Thermodynamic solubility pH 7.4
# Method: The thermodynamic solubility of the compounds was determined by the shake-flask method and HPLC. The solubility of the compounds is an important property that affects drug screening of compounds and the absorption of compounds in animals and humans. A saturated solution of the compound was first given and quantitatively tested by HPLC to obtain the solubility of the compound.
# 50 mM phosphate buffer solution, pH 7.4.
# Not less than 2 mg of the sample powder was weighed into a vial of Whatman miniuniprep. If test of the thermodynamic solubility of a sample in multiple buffer solutions is required, an individual vial is required for each test.
# 450 μL of the buffer solution (pH 7.4) was added to each Whatman miniuniprep vial.
# After the addition of the buffer solution, the Whatman miniuniprep cap with a filter was mounted and pressed above the liquid level so that the filter could contact with the buffer solution during shaking.
# And the observation of the solution was recorded.
# It was shaked at 550 RPM for 24 hours at room temperature (about 22 to 25° C.).
# The Whatman Miniunipreps filter cap was pressed to the bottom to give the filtrate of the sample solubility solution. All sample vials should be filtered before and after insoluble substances and their leakage.
# The buffer was diluted 50 folds to give a sample diluent.
# Three UV standards from low to high concentration were injected into HPLC, followed by the injection of the dilutions and supernatants of the tested compounds. The tested sample was injected twice.
# [2] = system: LU-01-0393 lung cancer patient-derived tumor tissue xenograft (PDX); test: In vivo pharmacodynamic study (1), LU-01-0393 PDX; design: species or system BALB/c nude mice; conditions: 60 mg/kg orally daily
# Method: The in vivo pharmacodynamic experiments were performed on the BALB/c nude mice implanted subcutaneously with the LU-01-0393 lung cancer patient-derived tumor tissue xenograft (PDX).
# BALB/c nude mice, female, 6-8 weeks, weighing approximately 17-21 g, were placed in a single ventilated cage (5 mice per cage) under a special pathogen free environment. All of the cages, beddings and water were disinfected before use. All of the animals were permitted free access to a standard certified commercial laboratory diet. A total of 36 mice purchased from Vital River Laboratory Animal Co., LTD, Beijing were used for the study. Each mouse was implanted subcutaneously with a tumor LU-01-0393 FP4 section (20-30 mm^3) in the right back for tumor growth. The dosing initiated when the average tumor volume reached about 150-200 mm^3. The tumor volume was measured twice a week using a two-dimensional caliper, and the volume was measured in mm^3, calculated by the following the formula: V=0.5 a×b^2, wherein, a and b were the long and short diameters of the tumor, respectively. The antitumor efficacy was determined by dividing the average increase in the tumor volume of the animals treated with the compound by the average increase in the tumor volume of the untreated animals.
# CDK4/cyclin D1 = target: T1, CDK4/cyclin D1 (Homo sapiens, UniProt P11802); test: Enzyme activity assay CDK4/cyclin D1 (Lance Ultra); assay type: biochemical; conditions: 0.3 nM CDK4/cyclin D1, 350 μM ATP, 180 minutes
# T1 construct: purchased Life technology
# Method: (§1) CDK4/cyclin D1, CDK6/cyclin D1 (Life technology). ULight labeled polypeptide substrates ULight-4E-BP1 and ULight-MBP (PerkinElmer). Europium labeled anti-myelin basic protein antibody and europium labeled rabbit-derived antibody (PerkinElmer). Envision Multi-label Analyzer (PerkinElmer) for signal detection.
# (§2) They were respectively dissolved in an enzyme buffer solution comprising: 50 mM hydroxyethylpiperazine ethanesulfuric acid solution at pH 7.5, 1 mM ethylenediaminetetraacetic acid, 10 mM magnesium chloride, 0.01% Brij-35, 2 mM dithiothreitol. After the reaction was begun, the OptiPlate 384-well plate was sealed with a top heat seal film TopSeal-A, and incubated at room temperature for 180 minutes.
# (§3) The termination buffer solution of the enzymatic reaction was prepared, and EDTA was dissolved in a 1-fold diluted assay buffer solution. The reaction was terminated and incubated at room temperature for 5 minutes. 5 μL of the assay mixed solution (prepared with europium labeled anti-myelin basic protein antibody and europium labeled rabbit-derived antibody, respectively) was added to the reactions of CDK4/cyclin D1 and CDK6/cyclin D1, respectively, and incubated at room temperature for 60 minutes. The reaction signal was detected by Envision according to the time-resolved fluorescence resonance energy transfer theory.
# [3] = system: non-small cell lung cancer NCI-H358 model; test: In vivo pharmacodynamic study (2), NCI-H358 model, tumor volume; design: species or system BALB/c nude mice; conditions: 60 mg/kg orally daily, Table 6-1
# Method: (§4) The in vivo pharmacodynamic experiments were performed on the BALB/c nude mice implanted subcutaneously with the non-small cell lung cancer NCI-H358 model.
# (§5) All of the cages, beddings and water were disinfected before use. All of the animals were permitted free access to a standard certified commercial laboratory diet. A total of 86 mice purchased from Vital River Laboratory Animal Co., LTD, Beijing were used for the study. The animal information of the experiments in Example 34 was as follows: BALB/c nude mice, female, 6-8 weeks, weighing approximately 16-18 g, were placed in a single ventilated cage (4 mice per cage) under a special pathogen free environment. All of the cages, beddings and water were disinfected before use. All of the animals were permitted free access to a standard certified commercial laboratory diet. A total of 56 mice purchased from Shanghai Lingchang Biotechnology Co., Ltd. were used for the study.
# (§6) Each mouse was implanted subcutaneously with NCI-H358 tumor cells in the right back for tumor growth. The dosing initiated when the average tumor volume reached about 100-200 mm^3. […] The tumor volume was measured twice a week using a two-dimensional caliper, and the volume was measured in mm^3, calculated by the following the formula: V=0.5 a×b^2, wherein, a and b were the long and short diameters of the tumor, respectively. The antitumor efficacy was determined by dividing the average increase in the tumor volume of the animals treated with the compound by the average increase in the tumor volume of the untreated animals, and the safety of the compound was determined by the change in the body weight of the animal treated with the compound.
# TGI: Tumor Growth Inhibition.
# CDK6/cyclin D1 = target: T2, CDK6/cyclin D1 (Homo sapiens, UniProt Q00534); test: Enzyme activity assay CDK6/cyclin D1 (Lance Ultra); assay type: biochemical; conditions: 0.8 nM CDK6/cyclin D1, 250 μM ATP, 180 minutes
# T2 construct: purchased Life technology
# Method: as §1
# as §2, with “started,” for “begun,”, “TopSeal-A” for “TopSeal-A,”
# as §3
# NCI-H358 cells = test: Cell viability assay NCI-H358 (CellTiter-Glo); assay type: cell-based; conditions: Homo sapiens, 168 h; NCI-H358, incubated for 7 days
# Method: The NCI-H358 cell line is from the cell bank of the Department of Biology of WuXi Apptec Co. Ltd. Envision Multi-Label Analyzer (PerkinElmer).
# 1) 100 μL of phosphate buffer solution was added to the peripheral wells of the 384-well plate and 40 μL of NCI-H358 cell suspension was added to the other wells containing 250 NCI-H358 cells. The cell plate was then placed in a carbon dioxide incubator and incubated overnight.
# 2) A 3-fold gradient dilution was subjected to the tested compounds using Echo. Each compound was diluted by 10 concentration gradients (diluted from 25 μM to 1.27 nM), 100 nL of which was added to the corresponding wells of the cell plate. The cell plate was then placed in a carbon dioxide incubator and incubated for 7 days.
# 3) 20 μL of Promega CellTiter-Glo reagent was added to each well of the cell plate, and shaken for 10 minutes away from light at room temperature to stabilize the luminescence signal. Readings were performed using a PerkinElmer Envision Multi-label Analyzer.
# Table 1 provides the inhibitory activity of the compounds of the present invention against the proliferation of H358 cells.
# [4] = In vivo pharmacodynamic study (2), NCI-H358 model, animal weight; design: species or system BALB/c nude mice; conditions: 60 mg/kg orally daily
# Method: as §4, §5, §6
# [5] = Two-way permeability evaluation assay of Caco-2 cells; conditions: human, Caco-2, pH 7.4
# Caco-2 cells [6] = test: as above; conditions: Caco-2
# [7] = Metabolic stability in rat liver microsomes; assay type: in vitro ADME; conditions: 0.5 mg/mL protein, read-out: Rats T1/2
# Method: (§7) This assay is used to test the metabolic stability of tested substances in rats, mice and human liver microsomes.
# (§8) 1) The tested compound with concentration of 1 μM was co-incubated with liver microsomes with a protein concentration of 0.5 mg/mL under a reducing coenzyme II regeneration system in a 37° C. water bath.
# (§9) 2) The positive controls include: testosterone (3A4 substrate), propafenene (2D6 substrate) and diclofenac (2C9 substrate). The incubation condition of the positive controls was consistent with that of the compound.
# (§10) 3) The reaction time points were: 0, 5, 10, 20, 30 and 60 minutes, and the reaction is terminated at the corresponding time point using a termination solution containing an internal standard. The compounds were also incubated with microsomes for 60 minutes without a reducing coenzyme II regeneration system and served as a negative control.
# (§11) 4) Each time point was a single point (n=1).
# (§12) 5) The sample was determined by LC/MS/MS, and the compound concentration was shown as the ratio of the peak area of the compound to the peak area of the internal standard (non-standard).
# (§13) 6) In the project report summary, the half-life and the clearance rate would be calculated.
# Caco-2 cells [8] = system: Caco-2 cells
# [9] = Metabolic stability in mouse liver microsomes; assay type: in vitro ADME; conditions: 0.5 mg/mL protein, read-out: Mice T1/2
# Method: as §7, §8, §9, §10, §11, §12, §13
# [10] = Metabolic stability in human liver microsomes; assay type: in vitro ADME; conditions: 0.5 mg/mL protein, read-out: Human T1/2
# Method: as §7, §8, §9, §10, §11, §12, §13
# T2 sequence (Q00534 whole entry): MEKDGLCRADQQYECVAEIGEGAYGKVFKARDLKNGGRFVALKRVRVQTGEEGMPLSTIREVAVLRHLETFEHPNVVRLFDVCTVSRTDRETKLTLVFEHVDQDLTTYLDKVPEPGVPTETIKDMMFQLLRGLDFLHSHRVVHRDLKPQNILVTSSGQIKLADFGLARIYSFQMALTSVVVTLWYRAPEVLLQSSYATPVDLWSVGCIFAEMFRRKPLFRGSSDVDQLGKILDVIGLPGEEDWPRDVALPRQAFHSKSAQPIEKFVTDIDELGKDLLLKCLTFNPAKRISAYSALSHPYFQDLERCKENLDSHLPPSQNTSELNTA
# T2 sequence (P24385 whole entry partner): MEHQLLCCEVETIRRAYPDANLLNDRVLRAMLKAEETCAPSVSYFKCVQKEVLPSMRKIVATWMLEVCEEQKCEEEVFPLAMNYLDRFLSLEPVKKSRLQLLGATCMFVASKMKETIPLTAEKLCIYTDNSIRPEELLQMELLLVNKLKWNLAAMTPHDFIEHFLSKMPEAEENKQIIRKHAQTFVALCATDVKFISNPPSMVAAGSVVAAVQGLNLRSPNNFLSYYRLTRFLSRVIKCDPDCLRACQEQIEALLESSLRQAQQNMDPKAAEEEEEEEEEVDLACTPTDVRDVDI
# T1 sequence (P11802 whole entry): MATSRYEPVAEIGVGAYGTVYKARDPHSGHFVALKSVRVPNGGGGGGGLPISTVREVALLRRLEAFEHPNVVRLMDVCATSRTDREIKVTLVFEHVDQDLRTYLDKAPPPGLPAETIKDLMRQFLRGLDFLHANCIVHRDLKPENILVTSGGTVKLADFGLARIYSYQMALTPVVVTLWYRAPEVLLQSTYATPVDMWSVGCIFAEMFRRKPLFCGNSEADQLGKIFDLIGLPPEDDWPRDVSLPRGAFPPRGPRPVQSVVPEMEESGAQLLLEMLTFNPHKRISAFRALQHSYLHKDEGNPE
# T1 sequence (P24385 whole entry partner): as the sequence (P24385 whole entry partner) above
smiles,measurement,setting,value
"NC(=O)N1c2ccccc2C=Cc2ccccc21 [Carbamazepine, reference compound]",solubility kinetic at 24 h,physchem,180 ± 15 µM
same,solubility thermodynamic at 24 h,[1],450 ± 60 µM
"CC(=O)c1c(C)c2cnc(Nc3cnc(N4CCNCC4)cn3)cc2n(C2CCCC2)c1=O [Example 1, 3-acetyl-1-cyclopentyl-4-methyl-7-[(5-piperazin-1-ylpyrazin-2-yl)amino]-1,6-naphthyridin-2-one]",Gross tumor volume Day 0,[2]; Day 0,144 mm^3
same,Gross tumor volume Day 7,[2]; Day 7,132 mm^3
same,Gross tumor volume Day 14,[2]; Day 14,182 mm^3
same,Gross tumor volume Day 20,[2]; Day 20,212 mm^3
CC(=O)c1c(C)c2cnc(Nc3cnc(N4CCN(C(C)C)CC4)cn3)cc2n(C2CCCC2)c1=O [Example 3],IC50,CDK4/cyclin D1,6.1 nM
same,solubility kinetic at 24 h,physchem,171 µM
same,"Gross tumor volume, 0 day",[3],152 mm^3
same,"Gross tumor volume, 7 days",[3],141 mm^3
same,"Gross tumor volume, 14 days",[3],159 mm^3
same,"Gross tumor volume, 17 days",[3],136 mm^3
same,IC50,CDK6/cyclin D1,2.9 nM
same,IC50,NCI-H358 cells,176 nM
same,"Changes in animal weight, 0 days",[4],0.0%
same,"Changes in animal weight, 7 days",[4],−1.0%
same,"Changes in animal weight, 14 days",[4],0.5%
same,"Changes in animal weight, 17 days",[4],0.8%
same,"Papp A→B at 2 h, 2 μM",[5],109 nm/s
same,"Papp B→A at 2 h, 2 μM",[5],124 nm/s
same,"efflux ratio at 2 h, 2 μM",[5],1.14
same,Category Efflux transporter substrate,Caco-2 cells [6],Less
same,Category Permeability,Caco-2 cells [6],High
"CC(=O)c1c(C)c2cnc(Nc3cnc(N4CCN[C@@H](C)C4)cn3)cc2n(C2CCCC2)c1=O [Example 9, 3-acetyl-1-cyclopentyl-4-methyl-7-[[5-[(3S)-3-methylpiperazin-1-yl]pyrazin-2-yl]amino]-1,6-naphthyridin-2-one]",IC50,CDK4/cyclin D1,9.1 nM
same,IC50,CDK6/cyclin D1,3.4 nM
same,IC50,NCI-H358 cells,196 nM
CC(=O)c1c(C)c2cnc(Nc3cnc(N4CCN(C(C)C)[C@@H](C)C4)cn3)cc2n(C2CCCC2)c1=O [Example 11],IC50,CDK4/cyclin D1,5.6 nM
same,IC50,CDK6/cyclin D1,3.1 nM
same,IC50,NCI-H358 cells,278 nM
CC(=O)c1c(C)c2cnc(Nc3cnc(N4CCN(C)C(C)(C)C4)cn3)cc2n(C2CCCC2)c1=O [Example 14],IC50,CDK4/cyclin D1,7.1 nM
same,IC50,CDK6/cyclin D1,2.4 nM
same,IC50,NCI-H358 cells,197 nM
CC(=O)c1c(C)c2cnc(Nc3cnc(N4CCN(C(C)C)C(C)(C)C4)cn3)cc2n(C2CCCC2)c1=O [Example 15],IC50,CDK4/cyclin D1,5.7 nM
same,IC50,CDK6/cyclin D1,3.1 nM
same,IC50,NCI-H358 cells,262 nM
CC(=O)c1c(C)c2cnc(Nc3cnc(N4CC5CCC(C4)N5C)cn3)cc2n(C2CCCC2)c1=O [Example 19],IC50,CDK4/cyclin D1,7 nM
same,IC50,CDK6/cyclin D1,3.7 nM
same,IC50,NCI-H358 cells,214 nM
CC(=O)c1c(C)c2cnc(Nc3cnc(C4CCNCC4)cn3)cc2n(C2CCCC2)c1=O [Example 28],IC50,CDK4/cyclin D1,8.3 nM
same,IC50,CDK6/cyclin D1,3.5 nM
same,IC50,NCI-H358 cells,295 nM
CC(=O)c1c(C)c2cnc(Nc3cnc(N4CCN(CCO)CC4)cn3)cc2n(C2CCCC2)c1=O [Example 33],IC50,CDK4/cyclin D1,8.62 nM
same,IC50,CDK6/cyclin D1,4.66 nM
same,IC50,NCI-H358 cells,153 nM
CC(=O)c1c(C)c2cnc(Nc3cnc(N4CCN(CCN)CC4)cn3)cc2n(C2CCCC2)c1=O [Example 35],IC50,CDK4/cyclin D1,5.06 nM
same,IC50,CDK6/cyclin D1,2.97 nM
same,IC50,NCI-H358 cells,189 nM
"CCN1CCN(Cc2ccc(Nc3ncc(F)c(-c4cc(F)c5nc(C)n(C(C)C)c5c4)n3)nc2)CC1 [LY2835219, Abemaciclib]",half-life at 1 μM,[7],6.34 min
same,Category Efflux transporter substrate,Caco-2 cells [8],Possible
same,half-life at 1 μM,[9],2.36 min
same,"Gross tumor volume, 0 day",[3],152 mm^3
same,"Gross tumor volume, 7 days",[3],97 mm^3
same,"Gross tumor volume, 14 days",[3],73 mm^3
same,"Gross tumor volume, 17 days",[3],60 mm^3
same,"Changes in animal weight, 0 days",[4],0.0%
same,"Changes in animal weight, 7 days",[4],−2.9%
same,"Changes in animal weight, 14 days",[4],−3.5%
same,"Changes in animal weight, 17 days",[4],−3.5%
same,half-life at 1 μM,[10],2.69 min
same,Category Permeability,Caco-2 cells [6],Medium
